Laboratory results published in paper PMC5159881 (Nature Communications, 2016).
Like-named read-outs stand apart in the source and are kept apart here.

Tests used:
AR-FL = AR-FL (Homo sapiens, UniProt P10275); assay: MMTV-luc dual luciferase reporter assay, DHT-induced AR activity in 22RV1 cells; format: cell-based; details: 22RV1, DHT +, compound 10 µM, 12 h, mean ± s.d., n=3
Experimental: (§1) Renilla and firefly activities were then determined by luminometry using the Dual-Luciferase Reporter Assay System (Promega) and the ratio calculated. Results were expressed as the ratio of firefly to Renilla luciferase activity.
After transient transfection of MMTV-luc and Renilla-luc in 22RV1, the MMTV-luc
activities were stimulated by androgen DHT. Then cells were treated with indicated
expressed as the ratio of luciferase activity. Values are presented as mean ± s.d., n =

AR1-651 = biological target: T1, AR1-651 (Homo sapiens, UniProt P10275); assay: MMTV-luc dual luciferase reporter assay, AR1-651-induced activity in 22RV1 cells; format: cell-based; details: for MMTV-luc Activity (%), AR1-651-induced: 22RV1, AR1-651 +, 12 h;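 for all read-outs here: luminometric read-out of firefly luciferase signal normalized to Renilla luciferase signal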
T1 construct: FLAG; expressed in transfected cells; host or cells: 22RV1
T1 sequence (P10275 1-651): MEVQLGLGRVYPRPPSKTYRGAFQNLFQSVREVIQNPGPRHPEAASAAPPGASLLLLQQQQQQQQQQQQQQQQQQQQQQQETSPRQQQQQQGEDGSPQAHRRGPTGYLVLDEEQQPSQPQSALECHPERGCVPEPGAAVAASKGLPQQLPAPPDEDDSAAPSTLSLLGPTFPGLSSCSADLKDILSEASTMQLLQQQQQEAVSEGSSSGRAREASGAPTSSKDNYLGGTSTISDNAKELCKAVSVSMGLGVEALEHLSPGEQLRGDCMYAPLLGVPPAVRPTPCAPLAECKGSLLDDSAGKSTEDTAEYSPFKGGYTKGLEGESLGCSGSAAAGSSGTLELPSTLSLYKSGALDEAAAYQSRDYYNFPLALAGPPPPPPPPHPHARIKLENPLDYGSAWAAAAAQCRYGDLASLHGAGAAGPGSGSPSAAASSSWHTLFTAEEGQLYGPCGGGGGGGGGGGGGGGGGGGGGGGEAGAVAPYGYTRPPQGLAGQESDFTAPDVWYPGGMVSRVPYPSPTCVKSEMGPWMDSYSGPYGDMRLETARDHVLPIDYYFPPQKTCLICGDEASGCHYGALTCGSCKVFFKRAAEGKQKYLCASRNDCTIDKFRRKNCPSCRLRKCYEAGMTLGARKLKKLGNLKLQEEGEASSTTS
Experimental: as §1

[1] = compound 10 µM, mean ± s.d., n=3
[2] = 22Rv1, read-out: MMTV-luc Activity (%), AR1-651-induced, 22RV1, AR1-651 +, compound 10 µM, 12 h, mean ± s.d., n=3
[3] = 22Rv1, read-out: MMTV-luc Activity (%), AR1-651-induced, 22RV1, AR1-651 +, compound 1 µM, 12 h
[4] = 22Rv1, read-out: MMTV-luc Activity (%), AR1-651-induced

Sequence of AR-FL (P10275 whole entry): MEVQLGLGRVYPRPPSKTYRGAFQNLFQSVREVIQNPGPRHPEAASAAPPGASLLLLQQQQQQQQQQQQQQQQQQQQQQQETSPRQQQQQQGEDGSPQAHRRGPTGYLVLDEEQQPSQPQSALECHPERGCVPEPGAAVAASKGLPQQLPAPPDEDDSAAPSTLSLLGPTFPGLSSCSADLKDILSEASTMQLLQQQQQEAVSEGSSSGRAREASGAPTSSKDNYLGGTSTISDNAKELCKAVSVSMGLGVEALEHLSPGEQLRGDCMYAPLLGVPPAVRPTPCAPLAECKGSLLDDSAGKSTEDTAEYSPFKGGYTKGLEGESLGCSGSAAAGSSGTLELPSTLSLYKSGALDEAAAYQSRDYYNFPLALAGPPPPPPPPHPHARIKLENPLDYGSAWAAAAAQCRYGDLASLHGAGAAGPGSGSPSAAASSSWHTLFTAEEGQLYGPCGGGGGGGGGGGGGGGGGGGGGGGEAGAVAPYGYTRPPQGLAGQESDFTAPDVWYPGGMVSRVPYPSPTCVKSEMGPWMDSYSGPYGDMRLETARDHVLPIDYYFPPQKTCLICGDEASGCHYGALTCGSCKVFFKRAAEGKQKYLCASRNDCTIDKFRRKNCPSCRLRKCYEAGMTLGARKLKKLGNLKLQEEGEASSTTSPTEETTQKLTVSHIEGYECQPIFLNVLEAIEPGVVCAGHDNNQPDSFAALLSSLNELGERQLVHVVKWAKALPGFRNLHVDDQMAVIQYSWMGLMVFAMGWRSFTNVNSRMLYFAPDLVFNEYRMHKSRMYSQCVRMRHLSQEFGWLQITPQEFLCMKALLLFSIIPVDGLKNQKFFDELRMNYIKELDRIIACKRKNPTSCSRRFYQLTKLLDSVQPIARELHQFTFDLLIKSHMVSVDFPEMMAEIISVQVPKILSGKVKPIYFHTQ

Compound	MMTV-luc Activity (%), AR1-651-induced (AR1-651; [1]) [%]	activity at 10 µM (AR1-651; [2]) [%]	also measured
CC1(C)CC[C@]2(C(=O)O)CC[C@]3(C)C(=CC[C@@H]4[C@@]5(C)CC[C@H](O)C(C)(C)[C@@H]5CC[C@]43C)[C@@H]2C1 [Oleanic acid]	153.4		MMTV-luc Activity (%), DHT-induced (AR-FL): 122.4±7.5%
CC(C)=CCC[C@](C)(O[C@@H]1O[C@H](CO)[C@@H](O)[C@H](O)[C@H]1O)[C@H]1CC[C@]2(C)[C@@H]1[C@H](O)C[C@@H]1[C@@]3(C)CC[C@H](O)C(C)(C)[C@@H]3[C@@H](O[C@@H]3O[C@H](CO)[C@@H](O)[C@H](O)[C@H]3O)C[C@]12C [Ginsenoside Rg1]		77.2	
O=C(CCc1ccc(O)cc1)c1c(O)cc(O)cc1O[C@@H]1O[C@H](CO)[C@@H](O)[C@H](O)[C@H]1O [Phlorizin]		52.9	activity at 1 µM (AR1-651; [3]): 126%
O=C(O)C1=C[C@@H](O)[C@@H](O)[C@H](O)C1 [shikimic acid]		104	
O=c1c(-c2ccc(O)cc2)coc2cc(O)cc(O)c12 [Genistein]		157	
COc1cc(/C=C/C(=O)CC(=O)/C=C/c2ccc(O)c(OC)c2)ccc1O [Curcumin]		178	
CC1(C)[C@@H](O)CC[C@]2(C)[C@H]3C(=O)C=C4[C@@H]5C[C@@](C)(C(=O)O)CC[C@]5(C)CC[C@@]4(C)[C@]3(C)CC[C@@H]12 [glycyrrhetic acid]	308.3		MMTV-luc Activity (%), DHT-induced (AR-FL): 101.3±11.9%
C[C@@H]1CC[C@@]2(OC1)O[C@H]1C[C@H]3[C@@H]4CC=C5C[C@@H](O)CC[C@]5(C)[C@H]4CC[C@]3(C)[C@H]1[C@@H]2C [Diosgenin]		148	
C=C[C@H]1[C@H](O[C@@H]2O[C@H](CO)[C@@H](O)[C@H](O)[C@H]2O)OC=C2C(=O)OCC[C@]21O [Swertiamain]	64.7±7.5		MMTV-luc Activity (%), DHT-induced (AR-FL): 80.9±8.5%
O=C1C=CC2(CCC23C=CC(=O)O3)O1 (centres unmarked) [Anemonin]		112	
O=c1cc(-c2ccc(O)c(O)c2)oc2cc(O)cc(O)c12 [Luteolin]		82.7 ± 4.5	
Cc1cc(O)c(C(=O)CCC(C)C)c(=O)o1 [Pogostone]	157.2		MMTV-luc Activity (%), DHT-induced (AR-FL): 92.3±13.3%
CC(C)(c1ccc(OCC(O)CO)cc1)c1ccc(OCC(O)CCl)cc1 (stereo not drawn) [EPI-001, reference compound]			MMTV-luc Activity (%), AR1-651-induced (AR1-651; compound 25 µM): 54.2%
O=Cc1ccc(O)c(O)c1 [Protocatechuic aldehyde]	62.5		MMTV-luc Activity (%), DHT-induced (AR-FL): 83.1±0.1%
O=c1c(-c2ccc(O)cc2)coc2cc(O)ccc12 [Daidzein]		177	
COc1cc(-c2oc3cc(O)cc(O)c3c(=O)c2O)ccc1O [Isorhamnetin]			activity at 10 µM (AR1-651; [4]): 139%
O=C(O)[C@H]1O[C@@H](Oc2cc3oc(-c4ccccc4)cc(=O)c3c(O)c2O)[C@H](O)[C@@H](O)[C@@H]1O [Baicalin]		113	
O=c1c(-c2ccc(O)cc2)coc2c([C@@H]3O[C@H](CO)[C@@H](O)[C@H](O)[C@H]3O)c(O)ccc12 [Puerarin]		80.1 ± 1.8	
C=CCc1ccc(O)c(-c2cc(CC=C)ccc2O)c1 [Magnolol]			activity at 1 µM (AR1-651; [4]): 60.6%; activity at 10 µM (AR1-651; [4]): 59.3%
Cc1coc2c1C(=O)C(=O)c1c-2ccc2c1CCCC2(C)C [Tanshinone IIA]		105	
O[C@H]1[C@H]2c3cc4c(cc3CN3CCC(=C[C@@H]1O)[C@H]23)OCO4 [Lycorine]			activity at 10 µM (AR1-651; [4]): 66%
O=C(/C=C/c1ccc(O)c(O)c1)O[C@H](Cc1ccc(O)c(O)c1)C(=O)O [Rosmarinic acid]		115	
C=C1C[C@@]2(O)O[C@@]3(C[C@H]2C(C)C)[C@@H](C)CC[C@@H]13 [Curcumol]	43.7		MMTV-luc Activity (%), DHT-induced (AR-FL): 90.0±9.2%; MMTV-luc Activity (%), AR1-651-induced (AR1-651; compound 1 µM): 86.4±7.7%

Compound	MMTV-luc Activity (%), AR1-651-induced (AR1-651; [1]) [%]	activity at 10 µM (AR1-651; [2]) [%]	also measured
CC(C)(C)[C@]1(O)CC2OC(=O)CC23C(=O)OC2OC(=O)[C@H](O)C231 (some centres unmarked) [Bilobalide]			activity at 10 µM (AR1-651; [4]): 98.7 ± 1.1%
CC(C)[C@@H](C)/C=C/[C@@H](C)[C@H]1CC[C@H]2C3=CC=C4C[C@@H](O)CC[C@]4(C)[C@H]3CC[C@]12C [Ergosterol]		96.3 ± 6.1	
CCNC(=O)CC[C@H](N)C(=O)O [L-Theanine]		61.9	
CC1=CC(=O)c2c(O)cccc2C1=O [Plumbagin]		28.8 ± 7.9	activity at 1 µM (AR1-651; [3]): 128%
COc1cc(/C=C/c2ccc(O)cc2)cc(OC)c1 [Pterostilbene]		90 ± 5.4	
O=C([O-])C(O)Cc1ccc(O)c(O)c1.[Na+] (centres unmarked) [Sodium Danshensu]	73.3		MMTV-luc Activity (%), DHT-induced (AR-FL): 93.0±14.7%
Cc1coc2c1C(=O)C(=O)c1c-2ccc2c(C)cccc12 [Tanshinone I]		99.9 ± 4.1	
C=C1CC[C@@H]2[C@](C)(CO)[C@H](O)CC[C@@]2(C)[C@@H]1C/C=C1/C(=O)OC[C@H]1O [Andrographolide]		59.5	activity at 1 µM (AR1-651; [3]): 70%
D-Tanshinone I	138.3		
C=C(C)[C@@H]1CC[C@]2(C(=O)O)CC[C@]3(C)[C@H](CC[C@@H]4[C@@]5(C)CC[C@H](O)C(C)(C)[C@@H]5CC[C@]43C)[C@@H]12 [Betulinic acid]		65.2	
Asiaticoside	150.9		
astragalosideⅠ	87.0±5.2		MMTV-luc Activity (%), DHT-induced (AR-FL): 117.8±5.2%
O=C1CCC[C@@H]2[C@H]3CCC[N@+]4([O-])CCC[C@@H](CN12)[C@@H]34 [Ammothamnine]	105.7		MMTV-luc Activity (%), DHT-induced (AR-FL): 119.1±20.9%
C[C@@H]1O[C@@H](OC[C@H]2O[C@@H](Oc3c(-c4ccc(O)c(O)c4)oc4cc(O)cc(O)c4c3=O)[C@H](O)[C@@H](O)[C@@H]2O)[C@H](O)[C@H](O)[C@H]1O [Rutin]		91.4	
Myricitrin	102.1		
OCc1ccc(O[C@@H]2O[C@H](CO)[C@@H](O)[C@H](O)[C@H]2O)cc1 [Gastrodin]			activity at 10 µM (AR1-651; [4]): 70 ± 3.7%
C[C@@]12C[C@@]3(O)O[C@@H](O1)[C@]1(COC(=O)c4ccccc4)[C@H]3C[C@@]12O[C@@H]1O[C@H](CO)[C@@H](O)[C@H](O)[C@H]1O [Paeoniflorin]		88.5	
O=C1c2c(O)cc(O)cc2O[C@H](c2cc(O)c(O)c(O)c2)[C@H]1O [Dihydromyricetin]		89.8 ± 8	
O=c1c(O[C@@H]2O[C@H](CO)[C@@H](O)[C@H](O)[C@H]2O)c(-c2ccc(O)c(O)c2)oc2cc(O)cc(O)c12 [Isoquercitrin]		95.5	
COc1ccc([C@@H]2CC(=O)c3c(O)cc(O[C@@H]4O[C@H](CO[C@@H]5O[C@@H](C)[C@H](O)[C@@H](O)[C@H]5O)[C@@H](O)[C@H](O)[C@H]4O)cc3O2)cc1O [Hesperidin]	110.2±13		MMTV-luc Activity (%), DHT-induced (AR-FL): 85.5±23.9%
CN1CCc2cc3c(cc2[C@H]1[C@@H]1OC(=O)c2c1ccc1c2OCO1)OCO3 [d-Bicuculline]	112.1		MMTV-luc Activity (%), DHT-induced (AR-FL): 75.0±11.5%
O=C(/C=C/c1ccc(O)c2c1[C@H](C(=O)O[C@H](Cc1ccc(O)c(O)c1)C(=O)O)[C@@H](c1ccc(O)c(O)c1)O2)O[C@H](Cc1ccc(O)c(O)c1)C(=O)O [lithospermic acid B]	96.3±4.2		MMTV-luc Activity (%), DHT-induced (AR-FL): 115.9±27.9%
